One compound from publication PMC5218480 (PLoS ONE, 2017) can be followed below.

Molecules are shown by their SMILES.

The experiment concerns MV-4-11 cells. The experiment in a line: Gene expression microarray analysis (Affymetrix PrimeView) and GSEA. It counts as cell-based, human. Conditions: MV-4-11 cells, 48 hours. The arrangement: RFU PODN (11730768_x_at) / Fold change /veh PODN (11730768_x_at) / RFU LINC00158 (11744669_a_at) / Fold change /veh LINC00158 (11744669_a_at) / RFU DUSP10 (11751237_a_at) / Fold change /veh DUSP10 (11751237_a_at) / RFU ID3 (11757404_x_at) / Fold change /veh ID3 (11757404_x_at) / RFU PLEKHG5 (11737974_s_at) / Fold change /veh PLEKHG5 (11737974_s_at) / RFU LRRC4B (11730491_at) / Fold change /veh LRRC4B (11730491_at) / RFU GIMAP4 (11747438_a_at) / Fold change /veh GIMAP4 (11747438_a_at) / RFU KRT8 (11758183_x_at) / Fold change /veh KRT8 (11758183_x_at) / RFU CNN1 (11734310_a_at) / Fold change /veh CNN1 (11734310_a_at) / RFU VPS37D (11726825_at) / Fold change /veh VPS37D (11726825_at) / RFU C10orf10 (11716522_x_at) / Fold change /veh C10orf10 (11716522_x_at) / RFU KIR2DL2 /// KIR2DL4 /// KIR2DL5A /// KIR2DL5B /// KIR2DS1 /// KIR2DS2 /// KIR2DS3 /// KIR2DS4 /// KIR3DL3 /// KIR3DL3 /// KIR3DS1 (11738374_at) / Fold change /veh KIR2DL2 /// KIR2DL4 /// KIR2DL5A /// KIR2DL5B /// KIR2DS1 /// KIR2DS2 /// KIR2DS3 /// KIR2DS4 /// KIR3DL3 /// KIR3DL3 /// KIR3DS1 (11738374_at) / RFU C1QL1 (11718748_at) / Fold change /veh C1QL1 (11718748_at) / RFU TMPRSS4 (11747572_a_at) / Fold change /veh TMPRSS4 (11747572_a_at) / RFU HAMP (11756126_x_at) / Fold change /veh HAMP (11756126_x_at) / RFU RNFT2 (11725882_a_at) / Fold change /veh RNFT2 (11725882_a_at) / RFU NR4A2 (11747474_a_at) / Fold change /veh NR4A2 (11747474_a_at) / RFU ABCC12 (11746883_a_at) / Fold change /veh ABCC12 (11746883_a_at) / RFU TMEM136 (11760407_x_at) / Fold change /veh TMEM136 (11760407_x_at) / RFU CLDN22 /// WWC2 (11732394_at) / Fold change /veh CLDN22 /// WWC2 (11732394_at) / RFU HLA-DPB1 (11760878_x_at) / Fold change /veh HLA-DPB1 (11760878_x_at) / RFU SPINT1 (11716480_a_at) / Fold change /veh SPINT1 (11716480_a_at) / RFU GAP43 (11754022_s_at) / Fold change /veh GAP43 (11754022_s_at) / RFU A4GNT (11735810_at) / Fold change /veh A4GNT (11735810_at) / RFU PRB3 (11715151_x_at) / Fold change /veh PRB3 (11715151_x_at) / RFU TUBB4B (11761932_at) / Fold change /veh TUBB4B (11761932_at) / RFU CAPN14 (11732068_a_at) / Fold change /veh CAPN14 (11732068_a_at) / RFU TMCC2 (11721928_a_at) / Fold change /veh TMCC2 (11721928_a_at) / RFU IRGQ (11745062_a_at) / Fold change /veh IRGQ (11745062_a_at) / RFU FAM174B (11720279_a_at) / Fold change /veh FAM174B (11720279_a_at) / RFU TMPRSS4 (11748680_a_at) / Fold change /veh TMPRSS4 (11748680_a_at) / RFU FAM212B (11763350_a_at) / Fold change /veh FAM212B (11763350_a_at) / RFU PLEKHG5 (11743358_a_at) / Fold change /veh PLEKHG5 (11743358_a_at) / RFU ZSCAN30 (11745921_a_at) / Fold change /veh ZSCAN30 (11745921_a_at) / RFU CMKLR1 (11741424_a_at) / Fold change /veh CMKLR1 (11741424_a_at) / RFU LOC101060620 /// MAPK8IP1 (11723275_at) / Fold change /veh LOC101060620 /// MAPK8IP1 (11723275_at) / RFU SPTSSB (11747773_x_at) / Fold change /veh SPTSSB (11747773_x_at) / RFU PRSS12 (11739890_at) / Fold change /veh PRSS12 (11739890_at) / RFU BIN1 (11741810_x_at) / Fold change /veh BIN1 (11741810_x_at) / RFU WNT11 (11732464_a_at) / Fold change /veh WNT11 (11732464_a_at) / RFU C10orf10 (11716521_a_at) / Fold change /veh C10orf10 (11716521_a_at) / RFU C5orf56 (11738089_at) / Fold change /veh C5orf56 (11738089_at) / RFU CYB561 (11721691_x_at) / Fold change /veh CYB561 (11721691_x_at) / RFU ANKRD19P (11752326_a_at) / Fold change /veh ANKRD19P (11752326_a_at) / RFU OR2T12 /// OR2T33 /// OR2T8 (11738714_s_at) / Fold change /veh OR2T12 /// OR2T33 /// OR2T8 (11738714_s_at) / RFU VCAN (11748164_a_at) / Fold change /veh VCAN (11748164_a_at) / RFU JSRP1 (11732532_at) / Fold change /veh JSRP1 (11732532_at) / RFU KRTAP10-11 (11738290_x_at) / Fold change /veh KRTAP10-11 (11738290_x_at) / RFU MYO3A (11730013_a_at) / Fold change /veh MYO3A (11730013_a_at) / RFU EBF3 (11725865_a_at) / Fold change /veh EBF3 (11725865_a_at) / RFU CAMK2N1 (11719241_x_at) / Fold change /veh CAMK2N1 (11719241_x_at) / RFU C5orf56 (11738088_a_at) / Fold change /veh C5orf56 (11738088_a_at) / RFU OLFML3 (11715873_a_at) / Fold change /veh OLFML3 (11715873_a_at) / RFU LOC100653217 /// NTM (11731650_a_at) / Fold change /veh LOC100653217 /// NTM (11731650_a_at) / RFU MAPK11 (11762145_a_at) / Fold change /veh MAPK11 (11762145_a_at) / RFU FIZ1 (11724087_x_at) / Fold change /veh FIZ1 (11724087_x_at) / RFU OASL (11726364_x_at) / Fold change /veh OASL (11726364_x_at) / RFU SOX15 (11748057_x_at) / Fold change /veh SOX15 (11748057_x_at) / RFU CD79A (11719716_a_at) / Fold change /veh CD79A (11719716_a_at) / RFU HIST1H1D (11736915_at) / Fold change /veh HIST1H1D (11736915_at) / RFU CASKIN2 (11723855_a_at) / Fold change /veh CASKIN2 (11723855_a_at) / RFU LOC730098 (11760151_x_at) / Fold change /veh LOC730098 (11760151_x_at) / RFU OR4N2 (11742367_at) / Fold change /veh OR4N2 (11742367_at) / RFU PRRT2 (11749266_a_at) / Fold change /veh PRRT2 (11749266_a_at) / RFU SNX32 (11753110_a_at) / Fold change /veh SNX32 (11753110_a_at) / RFU CDHR5 (11726645_a_at) / Fold change /veh CDHR5 (11726645_a_at) / RFU RCAN1 (11760418_a_at) / Fold change /veh RCAN1 (11760418_a_at) / RFU FAM167A (11723789_a_at) / Fold change /veh FAM167A (11723789_a_at) / RFU FAM26E (11764081_at) / Fold change /veh FAM26E (11764081_at) / RFU ISYNA1 (11749810_s_at) / Fold change /veh ISYNA1 (11749810_s_at) / RFU ACY1 (11761880_at) / Fold change /veh ACY1 (11761880_at) / RFU 11764098_at / Fold change /veh 11764098_at / RFU SAMD14 (11745864_x_at) / Fold change /veh SAMD14 (11745864_x_at) / RFU NPB (11741838_a_at) / Fold change /veh NPB (11741838_a_at) / RFU TMPRSS6 (11731388_a_at) / Fold change /veh TMPRSS6 (11731388_a_at) / RFU KRTAP10-2 (11738614_at) / Fold change /veh KRTAP10-2 (11738614_at) / RFU ARHGAP8 /// PRR5-ARHGAP8 (11727945_x_at) / Fold change /veh ARHGAP8 /// PRR5-ARHGAP8 (11727945_x_at) / RFU KRTAP5-7 /// NADSYN1 (11734609_at) / Fold change /veh KRTAP5-7 /// NADSYN1 (11734609_at) / RFU RASL12 (11751679_a_at) / Fold change /veh RASL12 (11751679_a_at) / RFU CDKN2B (11736163_a_at) / Fold change /veh CDKN2B (11736163_a_at) / RFU PRF1 (11729649_at) / Fold change /veh PRF1 (11729649_at) / RFU, ZNF638 /// ZNF638-IT1 / Fold change vs veh, ZNF638 /// ZNF638-IT1 / RFU, PANK3 / Fold change vs veh, PANK3 / RFU, SH3YL1 / Fold change vs veh, SH3YL1 / RFU, ZEB2 / Fold change vs veh, ZEB2 / RFU, NRIP1 / Fold change vs veh, NRIP1 / RFU, PTTG1IP / Fold change vs veh, PTTG1IP / RFU, CAPN2 / Fold change vs veh, CAPN2 / RFU, MED14 / Fold change vs veh, MED14 / RFU, SNORA58 / Fold change vs veh, SNORA58 / RFU, C1orf63 / Fold change vs veh, C1orf63 / RFU, LRRFIP1 / Fold change vs veh, LRRFIP1 / RFU, NDUFAF7 / Fold change vs veh, NDUFAF7 / RFU, SLC12A2 / Fold change vs veh, SLC12A2 / RFU, IBTK / Fold change vs veh, IBTK / RFU, ESF1 / Fold change vs veh, ESF1 / Fold change vs veh, TMEM50B / RFU, TAOK1 / Fold change vs veh, TAOK1 / RFU, ACBD3 / Fold change vs veh, ACBD3 / RFU, TMA16 / Fold change vs veh, TMA16 / RFU, RWDD3 / Fold change vs veh, RWDD3 / RFU, BCAT1 / Fold change vs veh, BCAT1 / RFU, EDEM3 / Fold change vs veh, EDEM3 / RFU, TMEM33 / Fold change vs veh, TMEM33 / RFU, WDR75 / Fold change vs veh, WDR75 / RFU, AHCTF1 / Fold change vs veh, AHCTF1 / RFU, TFRC / Fold change vs veh, TFRC / RFU, ZDHHC17 / Fold change vs veh, ZDHHC17 / RFU, NOM1 / Fold change vs veh, NOM1 / RFU, ARL8B / Fold change vs veh, ARL8B / RFU, ZBTB11 / Fold change vs veh, ZBTB11 / RFU, TAMM41 / Fold change vs veh, TAMM41 / RFU, KIAA1704 /// LOC100996395 / Fold change vs veh, KIAA1704 /// LOC100996395 / RFU, ING1 / Fold change vs veh, ING1 / RFU, TRMT61B / Fold change vs veh, TRMT61B / RFU, FUBP3 / Fold change vs veh, FUBP3 / RFU, TP53 / Fold change vs veh, TP53 / RFU, TNKS2 / Fold change vs veh, TNKS2 / RFU, ZFP14 / Fold change vs veh, ZFP14 / RFU, ACTR2 / Fold change vs veh, ACTR2 / RFU, PPP3R1 / Fold change vs veh, PPP3R1 / RFU, PIK3R1 / Fold change vs veh, PIK3R1 / RFU, HNRNPA1 / Fold change vs veh, HNRNPA1 / RFU, RNF170 / Fold change vs veh, RNF170 / RFU, ZNF28 / Fold change vs veh, ZNF28 / RFU, RNGTT / Fold change vs veh, RNGTT / RFU, OGT / Fold change vs veh, OGT / RFU, BRD1 / Fold change vs veh, BRD1 / RFU, MARS / Fold change vs veh, MARS / RFU, ZNF655 / Fold change vs veh, ZNF655 / RFU, FAHD1 / Fold change vs veh, FAHD1 / RFU, BDP1 / Fold change vs veh, BDP1 / RFU, LRRCC1 / Fold change vs veh, LRRCC1 / RFU, ARID1A / Fold change vs veh, ARID1A / RFU, ZNF146 / Fold change vs veh, ZNF146 / RFU, ZNF330 / Fold change vs veh, ZNF330 / RFU, GPN3 / Fold change vs veh, GPN3 / RFU, C9orf123 / Fold change vs veh, C9orf123 / RFU, N4BP2L2 / Fold change vs veh, N4BP2L2 / RFU, ARFIP1 / Fold change vs veh, ARFIP1 / RFU, FAM179B / Fold change vs veh, FAM179B / RFU, BCL10 / Fold change vs veh, BCL10 / RFU, UHRF1BP1L / Fold change vs veh, UHRF1BP1L / RFU, BET1 / Fold change vs veh, BET1 / RFU, CNOT2 / Fold change vs veh, CNOT2 / RFU, ZNF268 / Fold change vs veh, ZNF268 / Fold change vs veh, ZNF507 / RFU, DGCR2 / Fold change vs veh, DGCR2 / RFU, WDSUB1 / Fold change vs veh, WDSUB1 / Fold change vs veh, HSP90B1 /// MIR3652 / RFU, ADSS / Fold change vs veh, ADSS / RFU, GK / Fold change vs veh, GK / RFU, ZNF148 / Fold change vs veh, ZNF148 / RFU, TAF9 / Fold change vs veh, TAF9 / RFU, SLC1A5 / Fold change vs veh, SLC1A5 / RFU, SLMO2 / Fold change vs veh, SLMO2 / RFU, ABCC4 / Fold change vs veh, ABCC4 / RFU, LOC101060439 /// RAP1B / Fold change vs veh, LOC101060439 /// RAP1B / RFU, RFX7 / Fold change vs veh, RFX7 / RFU, GTPBP10 / Fold change vs veh, GTPBP10 / RFU, CNEP1R1 / Fold change vs veh, CNEP1R1 / RFU, BIVM-ERCC5 /// ERCC5 / Fold change vs veh, BIVM-ERCC5 /// ERCC5 / RFU, ILF3 / Fold change vs veh, ILF3 / RFU 11762660_at / Fold change /veh 11762660_at / RFU VCAN (11757783_s_at) / Fold change /veh VCAN (11757783_s_at) / RFU DDX43 (11728927_at) / Fold change /veh DDX43 (11728927_at) / RFU KRT8 (11758188_x_at) / Fold change /veh KRT8 (11758188_x_at) / RFU NKD1 (11759106_at) / Fold change /veh NKD1 (11759106_at) / RFU SRD5A1 (11742802_a_at) / Fold change /veh SRD5A1 (11742802_a_at) / RFU TPSAB1 /// TPSB2 (11721975_s_at) / Fold change /veh TPSAB1 /// TPSB2 (11721975_s_at) / RFU GSTM3 (11746129_a_at) / Fold change /veh GSTM3 (11746129_a_at) / RFU IL23R (11737362_x_at) / Fold change /veh IL23R (11737362_x_at) / RFU TMEM51 (11727254_a_at) / Fold change /veh TMEM51 (11727254_a_at) / RFU PIWIL2 (11732686_x_at) / Fold change /veh PIWIL2 (11732686_x_at) / RFU ORM1 (11744905_x_at) / Fold change /veh ORM1 (11744905_x_at) / RFU CCDC152 (11743942_at) / Fold change /veh CCDC152 (11743942_at) / RFU ECM1 (11717891_a_at) / Fold change /veh ECM1 (11717891_a_at) / RFU IL23R (11748794_a_at) / Fold change /veh IL23R (11748794_a_at) / RFU TNFAIP8L3 (11732012_x_at) / Fold change /veh TNFAIP8L3 (11732012_x_at) / RFU MBOAT4 (11741988_at) / Fold change /veh MBOAT4 (11741988_at) / RFU 11764193_at / Fold change /veh 11764193_at / RFU TMEM53 (11763286_at) / Fold change /veh TMEM53 (11763286_at) / RFU MAGEB2 (11727129_at) / Fold change /veh MAGEB2 (11727129_at) / RFU TMEM200A (11744735_a_at) / Fold change /veh TMEM200A (11744735_a_at) / RFU CCDC152 (11751479_a_at) / Fold change /veh CCDC152 (11751479_a_at) / RFU FAM211A (11726209_a_at) / Fold change /veh FAM211A (11726209_a_at) / RFU RGS16 (11746705_a_at) / Fold change /veh RGS16 (11746705_a_at) / RFU VCAN (11755009_s_at) / Fold change /veh VCAN (11755009_s_at) / RFU RHOB (11743442_s_at) / Fold change /veh RHOB (11743442_s_at) / RFU RGS16 (11720943_a_at) / Fold change /veh RGS16 (11720943_a_at) / RFU RGS16 (11720944_at) / Fold change /veh RGS16 (11720944_at) / RFU, VPS4B / Fold change vs veh, VPS4B / RFU, CREB1 / Fold change vs veh, CREB1 / RFU, DNAJC13 / Fold change vs veh, DNAJC13 / RFU, GNAQ / Fold change vs veh, GNAQ / RFU, CDK5R1 / Fold change vs veh, CDK5R1 / RFU, ZRANB3 / Fold change vs veh, ZRANB3 / RFU, CUL4A / Fold change vs veh, CUL4A / RFU, CCNY / Fold change vs veh, CCNY / RFU, UFL1 / Fold change vs veh, UFL1 / RFU, COG3 / Fold change vs veh, COG3 / RFU, DIAPH2 / Fold change vs veh, DIAPH2 / RFU, SKA2 / Fold change vs veh, SKA2 / RFU, AFF3 / Fold change vs veh, AFF3 / RFU, LMF1 / Fold change vs veh, LMF1 / RFU, IPO11 / Fold change vs veh, IPO11 / RFU, DFFB / Fold change vs veh, DFFB / RFU, FOXP1 / Fold change vs veh, FOXP1 / RFU, CARD8 / Fold change vs veh, CARD8 / RFU, STRN3 / Fold change vs veh, STRN3 / RFU, ADK / Fold change vs veh, ADK / RFU, RASSF2 / Fold change vs veh, RASSF2 / RFU, WIPF1 / Fold change vs veh, WIPF1 / RFU, LARP1B / Fold change vs veh, LARP1B / RFU, RASA1 / Fold change vs veh, RASA1 / RFU, RB1 / Fold change vs veh, RB1 / RFU, PPFIA1 / Fold change vs veh, PPFIA1 / RFU, MAT2A / Fold change vs veh, MAT2A / RFU, CCT5 / Fold change vs veh, CCT5 / RFU, WDR92 / Fold change vs veh, WDR92 / RFU, CUX1 / Fold change vs veh, CUX1 / RFU, TTC7A / Fold change vs veh, TTC7A / RFU, TMEM135 / Fold change vs veh, TMEM135 / RFU, DEPTOR / Fold change vs veh, DEPTOR / RFU, CPM / Fold change vs veh, CPM / RFU, DNAJB6 / Fold change vs veh, DNAJB6 / RFU, CACNA2D3 / Fold change vs veh, CACNA2D3 / RFU, DTX4 / Fold change vs veh, DTX4 / RFU, TFCP2 / Fold change vs veh, TFCP2 / RFU, GMCL1 /// GMCL1P1 / Fold change vs veh, GMCL1 /// GMCL1P1 / RFU, AEBP2 / Fold change vs veh, AEBP2 / RFU, SNHG1 /// SNORD22 /// SNORD25 /// SNORD26 /// SNORD27 /// SNORD28 /// SNORD29 /// SNORD31 / Fold change vs veh, SNHG1 /// SNORD22 /// SNORD25 /// SNORD26 /// SNORD27 /// SNORD28 /// SNORD29 /// SNORD31 / Fold change (Aza/veh), C12orf56 (ProbeSet 11735607_a_at) / Fold change (ACY-1035/veh), C12orf56 (ProbeSet 11735607_a_at) / Fold change (Aza/veh), FGFR1OP (ProbeSet 11751329_s_at) / Fold change (ACY-1035/veh), FGFR1OP (ProbeSet 11751329_s_at) / Fold change (Aza/veh), VPS36 (ProbeSet 11739960_a_at) / Fold change (ACY-1035/veh), VPS36 (ProbeSet 11739960_a_at) / RFU SYPL1 (11715823_x_at) / Fold change /veh SYPL1 (11715823_x_at) / RFU IGFBP7 (11715501_s_at) / Fold change /veh IGFBP7 (11715501_s_at) / RFU REEP3 (11722064_at) / Fold change /veh REEP3 (11722064_at) / RFU IGLL1 (11728026_x_at) / Fold change /veh IGLL1 (11728026_x_at): dose or concentration left out as unconfirmed.

As for `Nc1ccc(-c2cccs2)cc1NC(=O)c1ccc2c(c1)cc(C1CC1)n2CCN1CCOCC1` [ACY-1035], the “Fold change /veh WNT11 (11732464_a_at)” value is reported as 1.11.
